Consider 23 compounds from patent EP3753932A1, “SUBSTITUTED BICYCLIC DERIVATIVES HAVING MULTIMODAL ACTIVITY AGAINST PAIN” (priority 2019, dated 2020).

The target of test [1] is T1, Human µ-opioid receptor (Homo sapiens, UniProt P35372).
T1 construct: expressed in transfected cells; host or cells: CHO-K1
The experiment in a line: Human µ-opioid receptor radioligand assay ([3H]-DAMGO). The class given is binding. Here is the method: Human µ-opioid receptor radioligand assay
Transfected CHO-K1 cell membranes (20 µg) were incubated with [^3H]-DAMGO (1 nM) in assay buffer containing Tris-HCl 50 mM, MgCl2 5 mM at pH 7.4. NBS (non-specific binding) was measured by adding 10 µM Naloxone. The binding of the test compound was measured at either one concentration (% inhibition at 1 or 10 µM) or five different concentrations to determine affinity values (Ki). Plates were incubated at 27 °C for 60 min. After the incubation period, the reaction mixture was then transferred to MultiScreen HTS, FC plates (Millipore), filtered and plates were washed 3 times with ice-cold 10 mM Tris-HCl (pH 7.4). Filters were dried and counted at approximately 40% efficiency in a MicroBeta scintillation counter (Perkin-Elmer) using EcoScint liquid scintillation cocktail.

The target of test [2] is Human α2δ-1 subunit of Cav2.2 calcium channel (Homo sapiens, UniProt P54289). Description: Human α2δ-1 subunit of Cav2.2 calcium channel assay ([3H]-Gabapentin binding). The protocol: Human α2δ-1 subunit of Cav2.2 calcium channel assay
Human α2δ-1 enriched membranes (2.5 µg) were incubated with 15 nM of radiolabeled [3H]-Gabapentin in assay buffer containing Hepes-KOH 10mM, pH 7.4. NSB (non specific binding) was measured by adding 10 µM pregabalin. The binding of the test compound was measured at either one concentration (% inhibition at 1 or 10 µM) or five different concentrations to determine affinity values (Ki). After 60 min incubation at 27 °C, binding reaction was terminated by filtering through Multiscreen GF/C (Millipore) presoaked in 0.5 % polyethyleneimine in Vacuum Manifold Station, followed by 3 washes with ice-cold filtration buffer containing 50 mM Tris-HCl, pH 7.4. Filter plates were dried at 60 °C for 1 hour and 30 µl of scintillation cocktail were added to each well before radioactivity reading. Readings were performed in a Trilux 1450 Microbeta radioactive counter (Perkin Elmer).

Where [3] appears, read: transfected CHO-K1 cell membranes, [3H]-DAMGO 1 nM, read-out: µ-binding.
The mark [4] stands for this setting: human α2δ-1 enriched membranes, [3H]-Gabapentin 15 nM, read-out: α2δ-1 binding.

Like-named read-outs stand apart in the source and are kept apart here. Where only a bound is given, the exact number is not on record here.

Human α2δ-1 subunit of Cav2.2 calcium channel, sequence (P54289 25-1103): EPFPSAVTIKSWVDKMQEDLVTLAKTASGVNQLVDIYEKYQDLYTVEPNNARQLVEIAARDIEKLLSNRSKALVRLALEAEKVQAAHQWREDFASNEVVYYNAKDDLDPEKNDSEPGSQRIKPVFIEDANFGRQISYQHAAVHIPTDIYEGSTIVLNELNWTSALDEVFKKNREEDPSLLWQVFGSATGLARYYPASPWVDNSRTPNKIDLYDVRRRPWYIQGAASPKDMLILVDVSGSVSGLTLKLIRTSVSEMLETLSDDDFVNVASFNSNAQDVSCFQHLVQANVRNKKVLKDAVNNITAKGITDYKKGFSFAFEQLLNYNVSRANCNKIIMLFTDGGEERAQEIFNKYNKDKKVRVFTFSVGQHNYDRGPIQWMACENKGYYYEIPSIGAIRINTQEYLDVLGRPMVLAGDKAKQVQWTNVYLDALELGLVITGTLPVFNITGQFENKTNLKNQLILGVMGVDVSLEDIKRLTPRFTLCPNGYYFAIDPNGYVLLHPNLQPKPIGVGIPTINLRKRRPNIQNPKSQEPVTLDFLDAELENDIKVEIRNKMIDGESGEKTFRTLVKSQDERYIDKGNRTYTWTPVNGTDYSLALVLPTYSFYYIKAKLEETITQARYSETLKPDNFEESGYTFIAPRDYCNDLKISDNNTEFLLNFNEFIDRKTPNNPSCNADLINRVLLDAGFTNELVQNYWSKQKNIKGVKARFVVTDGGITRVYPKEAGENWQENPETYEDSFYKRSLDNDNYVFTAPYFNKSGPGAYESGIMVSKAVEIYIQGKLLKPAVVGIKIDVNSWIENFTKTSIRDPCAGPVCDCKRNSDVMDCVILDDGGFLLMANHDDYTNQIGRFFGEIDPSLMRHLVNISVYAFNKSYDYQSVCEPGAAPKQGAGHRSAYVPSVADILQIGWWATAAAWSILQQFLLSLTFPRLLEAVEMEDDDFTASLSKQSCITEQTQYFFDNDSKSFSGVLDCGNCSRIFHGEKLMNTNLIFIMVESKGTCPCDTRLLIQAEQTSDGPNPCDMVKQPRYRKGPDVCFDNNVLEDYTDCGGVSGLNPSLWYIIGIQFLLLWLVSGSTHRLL
T1 sequence (P35372 whole entry): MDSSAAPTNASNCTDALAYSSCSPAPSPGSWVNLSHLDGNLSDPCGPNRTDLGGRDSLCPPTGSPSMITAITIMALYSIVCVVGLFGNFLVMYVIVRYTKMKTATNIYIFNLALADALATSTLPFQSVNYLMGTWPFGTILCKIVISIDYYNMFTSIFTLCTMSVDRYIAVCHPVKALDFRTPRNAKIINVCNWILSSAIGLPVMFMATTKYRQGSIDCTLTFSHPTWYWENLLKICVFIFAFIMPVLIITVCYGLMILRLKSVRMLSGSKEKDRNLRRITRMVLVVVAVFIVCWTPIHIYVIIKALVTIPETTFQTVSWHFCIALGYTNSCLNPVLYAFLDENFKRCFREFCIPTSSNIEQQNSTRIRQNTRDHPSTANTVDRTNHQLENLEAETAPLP

For the compound `CCCC(c1cnc2ccc(CN3CCC(c4cccc(O)c4)(N(C)C)CC3)cc2n1)N1C[C@@H](C)N[C@@H](C)C1` (stereo partly drawn) [Example 37, 3-(4-(Dimethylamino)-1-((3-(1-((3S,5R)-3,5-dimethylpiperazin-1-yl)butyl)quinoxalin-6-yl)methyl)piperidin-4-yl)phenol], the results for the Ki in test [1] (setting [3]) and in test [2] were below 100 nM and below 500 nM, respectively.

For `CCC[C@H](c1ccc2cc(CN3CCC(c4cccc(O)c4)(N(C)C)CC3)ccc2n1)N1C[C@@H](C)N[C@@H](C)C1` [Example 10, 3-(4-(Dimethylamino)-1-((2-((R)-1-((3S,5R)-3,5-dimethylpiperazin-1-yl)butyl)quinolin-6-yl)methyl)piperidin-4-yl)phenol], the Ki in test [1] (setting [3]) is below 100 nM; in test [2], below 500 nM.

For `CCC[C@H](c1cc2ccc(CN3CCC(c4cccc(O)c4)(N(C)C)CC3)cc2nc1CC)N1C[C@@H](C)N[C@@H](C)C1` [Example 23, 3-(4-(Dimethylamino)-1-((3-((R)-1-((3S,5R)-3,5-dimethylpiperazin-1-yl)butyl)-2-ethylquinolin-7-yl)methyl)piperidin-4-yl)phenol], the figures for the Ki in test [1] (setting [3]) and in test [2] were below 100 nM and below 500 nM, respectively.

Turning to `CCCC(c1cc(OC)c2cc(N3CCC(c4ccccc4)(N(C)C)CC3)ccc2n1)N1C[C@@H](C)N[C@@H](C)C1` (stereo partly drawn) [Example 31, 1-(2-(1-((3S,5R)-3,5-Dimethylpiperazin-1-yl)butyl)-4-methoxyquinolin-6-yl)-N,N-dimethyl-4-phenylpiperidin-4-amine], the Ki in test [1] (setting [3]) was 100 to 500 nM; in test [2], below 500 nM.

With `CCCC(c1cnc2cc(N3CCC(c4cccc(O)c4)(N(C)C)CC3)ccc2n1)N1C[C@@H](C)N[C@@H](C)C1` (stereo partly drawn) [Example 32, 3-(4-(Dimethylamino)-1-(2-(1-((3S,5R)-3,5-dimethylpiperazin-1-yl)butyl)quinoxalin-6-yl)piperidin-4-yl)phenol], the Ki in test [1] is below 100 nM; in test [2] (setting [4]) it was 500 to 5000 nM.

As for `CCCC(c1cnc2cc(N3CCC(c4cccc(O)c4)(N(C)C)CC3)ccc2c1)N1C[C@@H](C)N[C@@H](C)C1` (stereo partly drawn) [Example 2, 3-(4-(Dimethylamino)-1-(3-(1-((3S,5R)-3,5-dimethylpiperazin-1-yl)butyl)quinolin-7-yl)piperidin-4-yl)phenol], the Ki was below 100 nM in test [1] and 500 to 5000 nM in test [2] (setting [4]).

In the case of `CCCC(c1ncc2cc(CN3CCC(c4cccc(O)c4)(N(C)C)CC3)ccc2n1)N1C[C@@H](C)N[C@@H](C)C1` (stereo partly drawn) [Example 28, 3-(4-(Dimethylamino)-1-((2-(1-((3S,5R)-3,5-dimethylpiperazin-1-yl)butyl)quinazolin-6-yl)methyl)piperidin-4-yl)phenol], the results for the Ki in test [1] and in test [2] (setting [4]) were below 100 nM and above 5000 nM, respectively.

`CCC[C@@H](c1ccc2cc(CN3CCC(c4cccc(O)c4)(N(C)C)CC3)ccc2n1)N1C[C@@H](C)N[C@@H](C)C1` [Example 11, 3-(4-(Dimethylamino)-1-((2-((S)-1-((3S,5R)-3,5-dimethylpiperazin-1-yl)butyl)quinolin-6-yl)methyl)piperidin-4-yl)phenol]: the results for the Ki in test [1] and in test [2] (setting [4]) were below 100 nM and 500 to 5000 nM, respectively.

As to `CCCC(c1ccc2cc(CN3CCC(c4cccc(O)c4)(N(C)C)CC3)ccc2n1)N1C[C@@H](C)N[C@@H](C)C1` (stereo partly drawn) [Example 7, 3-(4-(Dimethylamino)-1-((2-(1-((3S,5R)-3,5-dimethylpiperazin-1-yl)butyl)quinolin-6-yl)methyl)piperidin-4-yl)phenol], the values for the Ki in test [1] (setting [3]) and in test [2] were below 100 nM and below 500 nM, respectively.

Turning to `CCCC(c1cnc2ccc(N3CCC(c4cccc(O)c4)(N(C)C)CC3)cc2c1)N1C[C@@H](C)N[C@@H](C)C1` (stereo partly drawn) [Example 14, 3-(4-(Dimethylamino)-1-(3-(1-((3S,5R)-3,5-dimethylpiperazin-1-yl)butyl)quinolin-6-yl)piperidin-4-yl)phenol], the Ki was above 500 nM in test [1] (setting [3]) and below 500 nM in test [2].

As for `CCCC(c1cc2cc(CN3CCC(c4cccc(O)c4)(N(C)C)CC3)ccc2nc1CC)N1C[C@@H](C)N[C@@H](C)C1` (stereo partly drawn) [Example 22, 3-(4-(Dimethylamino)-1-((3-(1-((3S,5R)-3,5-dimethylpiperazin-1-yl)butyl)-2-ethylquinolin-6-yl)methyl)piperidin-4-yl)phenol], the Ki in test [1] was below 100 nM; in test [2] (setting [4]) it was 500 to 5000 nM.

For the compound `CCC[C@@H](c1cnc2ccc(CN3CCC(c4ccccc4)(N(C)C)CC3)cc2c1)N1C[C@@H](C)N[C@@H](C)C1` [Example 19, 1-((3-((S)-1-((3S,5R)-3,5-Dimethylpiperazin-1-yl)butyl)quinolin-6-yl)methyl)-N,N-dimethyl-4-phenylpiperidin-4-amine], the Ki in test [1] was below 100 nM; in test [2] (setting [4]), above 5000 nM.

With `CCC[C@@H](c1cnc2cc(N3CCC(c4cccc(O)c4)(N(C)C)CC3)ccc2c1)N1C[C@@H](C)N[C@@H](C)C1` [Example 5, 3-(4-(Dimethylamino)-1-(3-((S)-1-((3S,5R)-3,5-dimethylpiperazin-1-yl)butyl)quinolin-7-yl)piperidin-4-yl)phenol], the values for the Ki in test [1] and in test [2] (setting [4]) were below 100 nM and above 5000 nM, respectively.

`CCCC(c1ccc2cc(N3CCC(c4cccc(O)c4)(N(C)C)CC3)ccc2n1)N1C[C@@H](C)N[C@@H](C)C1` (stereo partly drawn) [Example 3, 3-(4-(Dimethylamino)-1-(2-(1-((3S,5R)-3,5-dimethylpiperazin-1-yl)butyl)quinolin-6-yl)piperidin-4-yl)phenol]: the Ki in test [1] is below 100 nM; in test [2] (setting [4]) it was 500 to 5000 nM.

For the compound `CCC[C@@H](c1cnc2cc(CN3CCC(c4ccccc4)(N(C)C)CC3)ccc2c1)N1C[C@@H](C)N[C@@H](C)C1` [Example 13, 1-((3-((S)-1-((3S,5R)-3,5-Dimethylpiperazin-1-yl)butyl)quinolin-7-yl)methyl)-N,N-dimethyl-4-phenylpiperidin-4-amine], the Ki was 100 to 500 nM in test [1] and above 5000 nM in test [2] (setting [4]).

Take `CCC[C@H](c1cnc2ccc(CN3CCC(c4cccc(O)c4)(N(C)C)CC3)cc2c1)N1C[C@@H](C)N[C@@H](C)C1` [Example 16, 3-(4-(Dimethylamino)-1-((3-((R)-1-((3S,5R)-3,5-dimethylpiperazin-1-yl)butyl)quinolin-6-yl)methyl)piperidin-4-yl)phenol]: the Ki in test [1] (setting [3]) is below 100 nM; in test [2], below 500 nM.

For `CCCC(c1cnc2ccc(N3CCC(c4cccc(O)c4)(N(C)C)CC3)cc2n1)N1C[C@@H](C)N[C@@H](C)C1` (stereo partly drawn) [Example 33, 3-(4-(Dimethylamino)-1-(3-(1-((3S,5R)-3,5-dimethylpiperazin-1-yl)butyl)quinoxalin-6-yl)piperidin-4-yl)phenol], the figures for the Ki in test [1] (setting [3]) and in test [2] were below 100 nM and below 500 nM, respectively.

In the case of `CCC[C@H](c1cnc2cc(CN3CCC(c4ccccc4)(N(C)C)CC3)ccc2c1)N1C[C@@H](C)N[C@@H](C)C1` [Example 12, 1-((3-((R)-1-((3S,5R)-3,5-Dimethylpiperazin-1-yl)butyl)quinolin-7-yl)methyl)-N,N-dimethyl-4-phenylpiperidin-4-amine], the Ki in test [1] (setting [3]) was 100 to 500 nM; in test [2] it was below 500 nM.

For the compound `CCCC(c1cc2ccc(N3CCC(c4cccc(O)c4)(N(C)C)CC3)cc2nc1CC)N1C[C@@H](C)N[C@@H](C)C1` (stereo partly drawn) [Example 20, 3-(4-(Dimethylamino)-1-(3-(1-((3S,5R)-3,5-dimethylpiperazin-1-yl)butyl)-2-ethylquinolin-7-yl)piperidin-4-yl)phenol], the Ki in test [1] (setting [3]) is below 100 nM; in test [2] it was below 500 nM.

In the case of `CCCC(c1cc2ccc(CN3CCC(c4cccc(O)c4)(N(C)C)CC3)cc2nc1CC)N1C[C@@H](C)N[C@@H](C)C1` (stereo partly drawn) [Example 21, 3-(4-(Dimethylamino)-1-((3-(1-((3S,5R)-3,5-dimethylpiperazin-1-yl)butyl)-2-ethylquinolin-7-yl)methyl)piperidin-4-yl)phenol], the Ki in test [1] (setting [3]) was below 100 nM; in test [2], below 500 nM.

`CCC[C@@H](c1nc2ccc(CN3CCC(c4cccc(O)c4)(N(C)C)CC3)cc2nc1CC)N1C[C@@H](C)N[C@@H](C)C1` [Example 42, 3-(4-(Dimethylamino)-1-((2-((S)-1-((3S,5R)-3,5-dimethylpiperazin-1-yl)butyl)-3-ethylquinoxalin-6-yl)methyl)piperidin-4-yl)phenol]: the Ki in test [1] is below 100 nM; in test [2] (setting [4]), 500 to 5000 nM.

For the compound `CCC[C@H](c1cnc2cc(CN3CCC(c4cccc(O)c4)(N(C)C)CC3)ccc2c1)N1C[C@@H](C)N[C@@H](C)C1` [Example 8, 3-(4-(Dimethylamino)-1-((3-((R)-1-((3S,5R)-3,5-dimethylpiperazin-1-yl)butyl)quinolin-7-yl)methyl)piperidin-4-yl)phenol], the Ki in test [1] (setting [3]) was below 100 nM; in test [2] it was below 500 nM.

As for `CCC[C@H](c1nc2ccc(CN3CCC(c4cccc(O)c4)(N(C)C)CC3)cc2nc1CC)N1C[C@@H](C)N[C@@H](C)C1` [Example 41, 3-(4-(Dimethylamino)-1-((2-((R)-1-((3S,5R)-3,5-dimethylpiperazin-1-yl)butyl)-3-ethylquinoxalin-6-yl)methyl)piperidin-4-yl)phenol], the figures for the Ki in test [1] (setting [3]) and in test [2] were below 100 nM and below 500 nM, respectively.
